# Assay results published in ChEMBL document CHEMBL1122585, “Synthesis of a novel class of heteroaromatic amino acids and their use in the preparation of analogues of luteinizing hormone-releasing hormone” (J Med Chem, 1984).
# Test system: not listed separately
# Experiment: Acid dissociation constant was determined
# Format: ADME
row,pKa,SMILES
1,7.5,NC(Cc1nc2c([nH]1)CCCC2)C(=O)O (stereo not drawn)
2,3.4,NC(Cc1nc2cc(Cl)c(Cl)cc2[nH]1)C(=O)O (stereo not drawn)
3,5.4,Cc1cc2nc(CC(N)C(=O)O)[nH]c2cc1C (stereo not drawn)
4,4.7,NC(Cc1nc2ccccc2[nH]1)C(=O)O (stereo not drawn)

# Species: Rattus norvegicus
# Experiment: Antifertility effect in adult female rats by estrus suppression assay
# Format: functional
row,SMILES,Potency
1,CC(C)C[C@H](NC(=O)[C@@H](Cc1nc2ccccc2o1)NC(=O)[C@H](Cc1ccc(O)cc1)NC(=O)[C@H](CO)NC(=O)[C@H](Cc1c[nH]c2ccccc12)NC(=O)[C@H](Cc1c[nH]cn1)NC(=O)[C@@H]1CCC(=O)N1)C(=O)N[C@@H](CCCN=C(N)N)C(=O)N1CCC[C@H]1C(=O)NCC(N)=O,1.2
2,CC(C)C[C@H](NC(=O)[C@@H](Cc1nc2ccccc2[nH]1)NC(=O)[C@H](Cc1ccc(O)cc1)NC(=O)[C@H](CO)NC(=O)[C@H](Cc1c[nH]c2ccccc12)NC(=O)[C@H](Cc1c[nH]cn1)NC(=O)[C@@H]1CCC(=O)N1)C(=O)N[C@@H](CCCN=C(N)N)C(=O)N1CCC[C@H]1C(=O)NCC(N)=O,0.3
3,CC(C)C[C@H](NC(=O)[C@@H](Cc1nc2cc(Cl)c(Cl)cc2[nH]1)NC(=O)[C@H](Cc1ccc(O)cc1)NC(=O)[C@H](CO)NC(=O)[C@H](Cc1c[nH]c2ccccc12)NC(=O)[C@H](Cc1c[nH]cn1)NC(=O)[C@@H]1CCC(=O)N1)C(=O)N[C@@H](CCCN=C(N)N)C(=O)N1CCC[C@H]1C(=O)NCC(N)=O,0.9
4,CCNC(=O)[C@@H]1CCCN1C(=O)[C@H](CCCN=C(N)N)NC(=O)[C@H](CC(C)C)NC(=O)[C@@H](Cc1nc2ccccc2[nH]1)NC(=O)[C@H](Cc1ccc(O)cc1)NC(=O)[C@H](CO)NC(=O)[C@H](Cc1c[nH]c2ccccc12)NC(=O)[C@H](Cc1c[nH]cn1)NC(=O)[C@@H]1CCC(=O)N1,1
5,CCNC(=O)[C@@H]1CCCN1C(=O)[C@H](CCCN=C(N)N)NC(=O)[C@H](CC(C)C)NC(=O)[C@@H](Cc1nc2c(ccc3ccccc32)[nH]1)NC(=O)[C@H](Cc1ccc(O)cc1)NC(=O)[C@H](CO)NC(=O)[C@H](Cc1c[nH]c2ccccc12)NC(=O)[C@H](Cc1c[nH]cn1)NC(=O)[C@@H]1CCC(=O)N1,0.8
6,CC(C)C[C@H](NC(=O)[C@@H](Cc1nc2ccccc2s1)NC(=O)[C@H](Cc1ccc(O)cc1)NC(=O)[C@H](CO)NC(=O)[C@H](Cc1c[nH]c2ccccc12)NC(=O)[C@H](Cc1c[nH]cn1)NC(=O)[C@@H]1CCC(=O)N1)C(=O)N[C@@H](CCCN=C(N)N)C(=O)N1CCC[C@H]1C(=O)NCC(N)=O,1
7,Cc1cc2nc(C[C@@H](NC(=O)[C@H](Cc3ccc(O)cc3)NC(=O)[C@H](CO)NC(=O)[C@H](Cc3c[nH]c4ccccc34)NC(=O)[C@H](Cc3c[nH]cn3)NC(=O)[C@@H]3CCC(=O)N3)C(=O)N[C@@H](CC(C)C)C(=O)N[C@@H](CCCN=C(N)N)C(=O)N3CCC[C@H]3C(=O)NCC(N)=O)[nH]c2cc1C,1.6
8,CC(C)C[C@H](NC(=O)[C@@H](Cc1nc2c([nH]1)CCCC2)NC(=O)[C@H](Cc1ccc(O)cc1)NC(=O)[C@H](CO)NC(=O)[C@H](Cc1c[nH]c2ccccc12)NC(=O)[C@H](Cc1c[nH]cn1)NC(=O)[C@@H]1CCC(=O)N1)C(=O)N[C@@H](CCCN=C(N)N)C(=O)N1CCC[C@H]1C(=O)NCC(N)=O,0.6
9,CCNC(=O)[C@@H]1CCCN1C(=O)[C@H](CCCN=C(N)N)NC(=O)[C@H](CC(C)C)NC(=O)[C@@H](Cc1nc2c([nH]1)CCCC2)NC(=O)[C@H](Cc1ccc(O)cc1)NC(=O)[C@H](CO)NC(=O)[C@H](Cc1c[nH]c2ccccc12)NC(=O)[C@H](Cc1c[nH]cn1)NC(=O)[C@@H]1CCC(=O)N1,1.4
